Experimental data: patent US20060069132A1, “Azolecarboxamide herbicides” (priority 2004, published 2006)

Assays:
cocklebur = assay: Test C pre-/postemergence herbicide test; assay type: in vivo, Xanthium strumarium
How it was run: (§1)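 Pre- and postemergence application, solvent/surfactant formulation; post at 1- to 4-leaf stage (2–18 cm). Greenhouse 12–14 d. Visual rating vs controls, 0 = no effect, 100 = complete control.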

johnsongrass = assay: Test C pre-/postemergence herbicide test; assay type: in vivo, Sorghum halepense; settings: preemergence
How it was run: as §1

rice = assay: Test C flooded paddy test; assay type: in vivo, Oryza sativa; settings: for Plant response rating, Rice: 500 g ai/ha, visual rating after 12 to 14 days
How it was run: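 Injury scored visually against controls on a 0 (no effect) to 100 (complete control) scale, 12 to 14 days after treatment in greenhouse. Flooded paddy plants treated at 2-leaf stage; postemergence plants at 1- to 4-leaf stage, 2 to 18 cm tall.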

corn = assay: Test C pre-/postemergence herbicide test; assay type: in vivo, Zea mays; settings: preemergence
How it was run: as §1

woolly cupgrass = assay: Test C pre-/postemergence herbicide test; assay type: in vivo, Eriochloa villosa; settings: preemergence
How it was run: as §1

Surinam grass = assay: Test C pre-/postemergence herbicide test; assay type: in vivo, Urochloa decumbens; settings: preemergence
How it was run: as §1

lambsquarters = assay: Test C pre-/postemergence herbicide test; assay type: in vivo, Chenopodium album; settings: preemergence
How it was run: as §1

[1] = system: common (oilseed) sunflower; assay: Test C pre-/postemergence herbicide test; assay type: in vivo, Helianthus annuus; settings: preemergence
How it was run: as §1

eastern black nightshade = assay: Test C pre-/postemergence herbicide test; assay type: in vivo, Solanum ptycanthum; settings: preemergence
How it was run: as §1

kochia = assay: Test C pre-/postemergence herbicide test; assay type: in vivo, Kochia scoparia; settings: preemergence
How it was run: as §1

[2] = 125 g ai/ha, scale 0 (no effect) to 100 (complete control), visual, 12 to 14 days, preemergence
[3] = 125 g ai/ha, scale 0 (no effect) to 100 (complete control), visual, 12 to 14 days
[4] = 500 g ai/ha, scale 0 to 100 (0 no effect, 100 complete control), visual, 12 to 14 days
[5] = 250 g ai/ha, scale of 0 to 100, 0 is no effect, 100 is complete control
[6] = scale 0 to 100 (0 no effect, 100 complete control)

CCN1N=C(C(C)(C)C)CC1C(=O)Nc1cc(C(=O)N2CCCC2)ccc1F (racemic) [Compound 309]
Plant response rating, Cocklebur (cocklebur; 62 g ai/ha, preemergence, scale 0 to 100): 0
Plant response rating, Cocklebur (cocklebur; [2]): 10
Plant response rating, Cocklebur (cocklebur; 250 g ai/ha, scale 0-100, preemergence): 60
Cocklebur plant response rating (cocklebur; Preemergence, 500 g ai/ha, scale 0 to 100, 0 no effect, 100 complete control): 60
Plant response rating, Johnsongrass (johnsongrass; 62 g ai/ha, scale 0 to 100): 75
Plant response rating, Johnsongrass (johnsongrass; [3]): 80
Plant response rating, Johnsongrass (johnsongrass; 250 g ai/ha, scale 0-100): 95
Plant response rating, Johnsongrass (johnsongrass; [4]): 100
Rice plant response rating (rice; 62 g ai/ha, scale 0 to 100): 60
Rice plant response rating (rice; 125 g ai/ha, scale 0 to 100 (0 no effect, 100 complete control)): 70
Rice plant response rating (rice; [5]): 75
Plant response rating, Rice (rice; [6]): 75
Plant response rating, Corn (corn; 62 g ai/ha, scale 0 to 100): 5
Plant response rating, Corn (corn; [3]): 20
Plant response rating, Corn (corn; 250 g ai/ha, scale 0-100): 40
Plant response rating, Corn (corn; [4]): 60
Plant response rating, Cupgrass, Woolly (woolly cupgrass; 62 g ai/ha, scale 0 to 100): 40
Plant response rating, Cupgrass, Woolly (woolly cupgrass; [3]): 70
Plant response rating, Cupgrass, Woolly (woolly cupgrass; 250 g ai/ha, scale 0-100): 90
Plant response rating, Cupgrass, Woolly (woolly cupgrass; [4]): 100
Plant response rating, Surinam Grass (Surinam grass; 62 g ai/ha, scale 0 to 100): 50
Plant response rating, Surinam Grass (Surinam grass; 250 g ai/ha, scale 0-100): 90
Plant response rating, Surinam Grass (Surinam grass; [4]): 100
Plant response rating, Lambsquarters (lambsquarters; 62 g ai/ha, scale 0 to 100): 100
Plant response rating, Lambsquarters (lambsquarters; [3]): 100
Plant response rating, Lambsquarters (lambsquarters; 250 g ai/ha, scale 0-100): 100
Plant response rating, Lambsquarters (lambsquarters; [4]): 100
Plant response rating, Sunflower ([1]; 62 g ai/ha, scale 0 to 100): 0
Plant response rating, Sunflower ([1]; 250 g ai/ha, scale 0-100): 5
Plant response rating, Sunflower [1, 4]: 60
Plant response rating, Nightshade (eastern black nightshade; 62 g ai/ha, scale 0 to 100): 70
Plant response rating, Nightshade (eastern black nightshade; [3]): 80
Plant response rating, Nightshade (eastern black nightshade; 250 g ai/ha, scale 0-100): 100
Plant response rating, Nightshade (eastern black nightshade; [4]): 100
Plant response rating, Kochia (kochia; 62 g ai/ha, scale 0 to 100): 100
Plant response rating, Kochia (kochia; [3]): 100
Plant response rating, Kochia (kochia; 250 g ai/ha, scale 0-100): 100
Plant response rating, Kochia (kochia; [4]): 100

CCC(=NO)c1cccc(NC(=O)c2cc(C(C)(C)C)nn2C)c1 [Compound 118]
Plant response rating, Cocklebur (cocklebur; 31 g ai/ha, preemergence, scale 0 to 100): 0
Plant response rating (0 = no effect, 100 = complete control), Cocklebur (cocklebur; 62 g ai/ha, preemergence): 20
Plant response rating, Cocklebur (cocklebur; [2]): 20
Plant response rating, Johnsongrass (johnsongrass; 31 g ai/ha, scale 0 to 100): 30
Plant response rating (0 = no effect, 100 = complete control), Johnsongrass (johnsongrass; 62 g ai/ha): 40
Plant response rating, Johnsongrass (johnsongrass; [3]): 100
Rice plant response rating (rice; 62 g ai/ha, scale 0 to 100 (0 no effect, 100 complete control)): 20
Rice plant response rating (rice; 125 g ai/ha, scale of 0 to 100, 0 is no effect, 100 is complete control): 30
Rice plant response rating (rice; [5]): 40
Plant response rating, Rice (rice; [6]): 50
Plant response rating, Corn (corn; 31 g ai/ha, scale 0 to 100): 0
Plant response rating (0 = no effect, 100 = complete control), Corn (corn; 62 g ai/ha): 0
Plant response rating, Corn (corn; [3]): 10
Plant response rating, Cupgrass, Woolly (woolly cupgrass; 31 g ai/ha, scale 0 to 100): 0
Plant response rating (0 = no effect, 100 = complete control), Cupgrass, Woolly (woolly cupgrass; 62 g ai/ha): 0
Plant response rating, Cupgrass, Woolly (woolly cupgrass; [3]): 0
Plant response rating, Surinam Grass (Surinam grass; 31 g ai/ha, scale 0 to 100): 20
Plant response rating, Surinam Grass (Surinam grass; [3]): 20
Plant response rating, Lambsquarters (lambsquarters; 31 g ai/ha, scale 0 to 100): 50
Plant response rating (0 = no effect, 100 = complete control), Lambsquarters (lambsquarters; 62 g ai/ha): 50
Plant response rating, Lambsquarters (lambsquarters; [3]): 60
Plant response rating, Sunflower ([1]; 31 g ai/ha, scale 0 to 100): 0
Plant response rating (0 = no effect, 100 = complete control), Sunflower ([1]; 62 g ai/ha): 0
Plant response rating, Sunflower [1, 3]: 20
Plant response rating, Nightshade (eastern black nightshade; 31 g ai/ha, scale 0 to 100): 60
Plant response rating (0 = no effect, 100 = complete control), Nightshade (eastern black nightshade; 62 g ai/ha): 100
Plant response rating, Nightshade (eastern black nightshade; [3]): 100
Plant response rating, Kochia (kochia; 31 g ai/ha, scale 0 to 100): 10
Plant response rating (0 = no effect, 100 = complete control), Kochia (kochia; 62 g ai/ha): 20
Plant response rating, Kochia (kochia; [3]): 20
